Source: the CheMixHub viscosity set
± gives the uncertainty stated by the source.

Assay: xn = mol fraction of the nth substance listed

Cc1ncc(C[n+]2csc(CCO)c2C)c(N)n1.Cl.[Cl-] + O
Settings	viscosity [mPa·s]
293.15 K, 101 kPa, x1 = 0.00036	1.014 ± 0.021
293.15 K, 101 kPa, x1 = 0.00072	1.027 ± 0.021
293.15 K, 101 kPa, x1 = 0.00108	1.041 ± 0.022
293.15 K, 101 kPa, x1 = 0.00144	1.057 ± 0.022
293.15 K, 101.3 kPa, x1 = 0.000445	1.015 ± 0.023
293.15 K, 101.3 kPa, x1 = 0.000886	1.029 ± 0.023
293.15 K, 101.3 kPa, x1 = 0.00177	1.063 ± 0.024
293.15 K, 101.3 kPa, x1 = 0.002215	1.08 ± 0.025
298.15 K, 101 kPa, x1 = 0.00036	0.9013 ± 0.019
298.15 K, 101 kPa, x1 = 0.000364	0.9024 ± 0.0082
298.15 K, 101 kPa, x1 = 0.000385	0.914 ± 0.023
298.15 K, 101 kPa, x1 = 0.000657	0.914 ± 0.0083
298.15 K, 101 kPa, x1 = 0.00072	0.9129 ± 0.019
298.15 K, 101 kPa, x1 = 0.000731	0.929 ± 0.023
298.15 K, 101 kPa, x1 = 0.000952	0.9244 ± 0.0083
298.15 K, 101 kPa, x1 = 0.00107	0.941 ± 0.024
298.15 K, 101 kPa, x1 = 0.00108	0.9266 ± 0.019
298.15 K, 101 kPa, x1 = 0.00125	0.9372 ± 0.0084
298.15 K, 101 kPa, x1 = 0.00144	0.9406 ± 0.02
298.15 K, 101 kPa, x1 = 0.00145	0.96 ± 0.024
298.15 K, 101 kPa, x1 = 0.00155	0.9488 ± 0.0084
298.15 K, 101 kPa, x1 = 0.001658	0.9532 ± 0.0068
298.15 K, 101 kPa, x1 = 0.001695	0.9545 ± 0.0069
298.15 K, 101 kPa, x1 = 0.001856	0.959 ± 0.0085
298.15 K, 101 kPa, x1 = 0.001922	0.98 ± 0.024
298.15 K, 101 kPa, x1 = 0.002519	0.9786 ± 0.0069
298.15 K, 101 kPa, x1 = 0.002881	1.013 ± 0.025
298.15 K, 101 kPa, x1 = 0.003713	1.05 ± 0.026
298.15 K, 101 kPa, x1 = 0.003828	1.034 ± 0.0071
298.15 K, 101 kPa, x1 = 0.004291	1.055 ± 0.0072
298.15 K, 101 kPa, x1 = 0.004534	1.083 ± 0.027
298.15 K, 101 kPa, x1 = 0.005245	1.097 ± 0.0075
298.15 K, 101 kPa, x1 = 0.005408	1.111 ± 0.027
298.15 K, 101 kPa, x1 = 0.007149	1.185 ± 0.029
298.15 K, 101 kPa, x1 = 0.00796	1.228 ± 0.03
298.15 K, 101 kPa, x1 = 0.009056	1.254 ± 0.03
298.15 K, 101 kPa, x1 = 0.009864	1.281 ± 0.031
298.15 K, 101.3 kPa, x1 = 0.000445	0.902 ± 0.02
298.15 K, 101.3 kPa, x1 = 0.000886	0.916 ± 0.021
298.15 K, 101.3 kPa, x1 = 0.00133	0.931 ± 0.021
298.15 K, 101.3 kPa, x1 = 0.00177	0.947 ± 0.022
298.15 K, 101.3 kPa, x1 = 0.002215	0.963 ± 0.024
303.15 K, 101 kPa, x1 = 0.00036	0.8078 ± 0.017
303.15 K, 101 kPa, x1 = 0.00072	0.8185 ± 0.017
303.15 K, 101 kPa, x1 = 0.00108	0.8322 ± 0.017
303.15 K, 101 kPa, x1 = 0.00144	0.8443 ± 0.018
303.15 K, 101.3 kPa, x1 = 0.000445	0.808 ± 0.018
303.15 K, 101.3 kPa, x1 = 0.000886	0.822 ± 0.019
303.15 K, 101.3 kPa, x1 = 0.00133	0.836 ± 0.019
303.15 K, 101.3 kPa, x1 = 0.00177	0.85 ± 0.02
303.15 K, 101.3 kPa, x1 = 0.002215	0.864 ± 0.021
308.15 K, 101 kPa, x1 = 0.00036	0.729 ± 0.015
308.15 K, 101 kPa, x1 = 0.000364	0.7301 ± 0.0076
308.15 K, 101 kPa, x1 = 0.000657	0.7393 ± 0.0077
308.15 K, 101 kPa, x1 = 0.00072	0.7391 ± 0.015
308.15 K, 101 kPa, x1 = 0.000952	0.7485 ± 0.0077
308.15 K, 101 kPa, x1 = 0.00108	0.7506 ± 0.016
308.15 K, 101 kPa, x1 = 0.00125	0.7576 ± 0.0077
308.15 K, 101 kPa, x1 = 0.00144	0.7631 ± 0.016
308.15 K, 101 kPa, x1 = 0.00155	0.768 ± 0.0078
308.15 K, 101 kPa, x1 = 0.001658	0.7726 ± 0.0061
308.15 K, 101 kPa, x1 = 0.001695	0.7711 ± 0.0061
308.15 K, 101 kPa, x1 = 0.001856	0.7772 ± 0.0078
308.15 K, 101 kPa, x1 = 0.002519	0.8005 ± 0.0062
308.15 K, 101 kPa, x1 = 0.003828	0.837 ± 0.0063
308.15 K, 101 kPa, x1 = 0.004291	0.8515 ± 0.0064
308.15 K, 101 kPa, x1 = 0.005245	0.8799 ± 0.0065
308.15 K, 101.3 kPa, x1 = 0.000445	0.73 ± 0.017
308.15 K, 101.3 kPa, x1 = 0.000886	0.743 ± 0.017
308.15 K, 101.3 kPa, x1 = 0.00177	0.77 ± 0.018
308.15 K, 101.3 kPa, x1 = 0.002215	0.783 ± 0.019
313.15 K, 101 kPa, x1 = 0.00036	0.6623 ± 0.014
313.15 K, 101 kPa, x1 = 0.00072	0.6722 ± 0.014
313.15 K, 101 kPa, x1 = 0.00108	0.6831 ± 0.014
313.15 K, 101 kPa, x1 = 0.00144	0.6947 ± 0.015
313.15 K, 101.3 kPa, x1 = 0.000445	0.664 ± 0.015
313.15 K, 101.3 kPa, x1 = 0.000886	0.676 ± 0.016
313.15 K, 101.3 kPa, x1 = 0.00133	0.689 ± 0.016
313.15 K, 101.3 kPa, x1 = 0.00177	0.702 ± 0.016
313.15 K, 101.3 kPa, x1 = 0.002215	0.713 ± 0.017
318.15 K, 101 kPa, x1 = 0.000364	0.6037 ± 0.0072
318.15 K, 101 kPa, x1 = 0.000657	0.6116 ± 0.0072
318.15 K, 101 kPa, x1 = 0.000952	0.6196 ± 0.0073
318.15 K, 101 kPa, x1 = 0.00125	0.6275 ± 0.0073
318.15 K, 101 kPa, x1 = 0.00155	0.6343 ± 0.0073
318.15 K, 101 kPa, x1 = 0.001658	0.6377 ± 0.0056
318.15 K, 101 kPa, x1 = 0.001695	0.6389 ± 0.0056
318.15 K, 101 kPa, x1 = 0.001856	0.6413 ± 0.0073
318.15 K, 101 kPa, x1 = 0.002519	0.6591 ± 0.0057
318.15 K, 101 kPa, x1 = 0.003828	0.6919 ± 0.0058
318.15 K, 101 kPa, x1 = 0.005245	0.7256 ± 0.0059
318.15 K, 101.3 kPa, x1 = 0.000445	0.606 ± 0.014
318.15 K, 101.3 kPa, x1 = 0.000886	0.618 ± 0.015
318.15 K, 101.3 kPa, x1 = 0.00133	0.63 ± 0.015
318.15 K, 101.3 kPa, x1 = 0.00177	0.642 ± 0.015
318.15 K, 101.3 kPa, x1 = 0.002215	0.653 ± 0.015
